This passage reports Ki and Ratio results from ChEMBL document CHEMBL1131980, “New class of biphenylene dibenzazocinones as potent ligands for the human EP1 prostanoid receptor” (Bioorg Med Chem Lett, 1999).

For test [1], the target named is Prostaglandin E2 receptor EP2 subtype (Homo sapiens, UniProt P43116). Put plainly: Affinity at human EP2 receptor.
Test [2] addresses Prostaglandin F2-alpha receptor (Homo sapiens, UniProt P43088). The test is described as follows: Compound was evaluated for its secondary binding affinity to human FP receptors by using Aequorin luminescence-based functional calcium assay.
Another test has as its target Prostacyclin receptor (Homo sapiens, UniProt P43119). The test is described as follows: Compound was evaluated for its secondary binding affinity to human IP receptors by using Aequorin luminescence-based functional calcium assay.
The target in a further test is T1, Thromboxane A2 receptor (Homo sapiens, UniProt P21731).
T1 sequence (P21731 whole entry): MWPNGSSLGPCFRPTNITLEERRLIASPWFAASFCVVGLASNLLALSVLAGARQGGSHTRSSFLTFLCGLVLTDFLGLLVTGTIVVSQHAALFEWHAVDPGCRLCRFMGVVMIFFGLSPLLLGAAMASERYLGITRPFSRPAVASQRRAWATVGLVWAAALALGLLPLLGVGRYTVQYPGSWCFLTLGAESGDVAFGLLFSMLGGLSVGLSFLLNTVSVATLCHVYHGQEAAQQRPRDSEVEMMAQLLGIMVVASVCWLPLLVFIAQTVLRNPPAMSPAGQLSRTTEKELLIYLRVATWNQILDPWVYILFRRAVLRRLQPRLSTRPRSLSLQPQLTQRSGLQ
Put plainly: Compound was evaluated for its secondary binding affinity to human TP receptors by using Aequorin luminescence-based functional calcium assay.

Test [3] deals with T2, Prostaglandin E2 receptor EP3 subtype (Homo sapiens, UniProt P43115).
T2 sequence (P43115 whole entry): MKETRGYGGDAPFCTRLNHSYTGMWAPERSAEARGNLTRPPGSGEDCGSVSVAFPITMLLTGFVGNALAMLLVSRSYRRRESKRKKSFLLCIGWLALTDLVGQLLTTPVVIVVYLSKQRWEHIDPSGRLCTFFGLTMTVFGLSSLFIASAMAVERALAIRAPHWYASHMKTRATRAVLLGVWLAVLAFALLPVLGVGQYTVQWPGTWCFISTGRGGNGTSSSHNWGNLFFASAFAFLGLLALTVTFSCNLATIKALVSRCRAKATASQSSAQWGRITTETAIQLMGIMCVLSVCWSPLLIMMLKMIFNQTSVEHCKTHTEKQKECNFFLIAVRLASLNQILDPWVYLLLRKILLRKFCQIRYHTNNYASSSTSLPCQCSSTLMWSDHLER
Put plainly: Affinity at human EP3 receptor.

Test [4] addresses T3, Prostaglandin D2 receptor (Homo sapiens, UniProt Q13258).
T3 sequence (Q13258 whole entry): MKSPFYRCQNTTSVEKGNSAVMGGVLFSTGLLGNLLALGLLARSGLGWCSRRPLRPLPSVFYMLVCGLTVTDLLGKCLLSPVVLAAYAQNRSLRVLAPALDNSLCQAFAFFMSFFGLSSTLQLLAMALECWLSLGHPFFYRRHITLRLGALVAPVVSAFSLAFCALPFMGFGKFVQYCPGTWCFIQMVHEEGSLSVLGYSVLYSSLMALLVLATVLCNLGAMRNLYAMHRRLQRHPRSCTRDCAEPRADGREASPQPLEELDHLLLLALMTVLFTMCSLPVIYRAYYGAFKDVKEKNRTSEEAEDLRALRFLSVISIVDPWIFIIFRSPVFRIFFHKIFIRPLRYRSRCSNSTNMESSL
Put plainly: Compound was evaluated for its secondary binding affinity to human DP receptors by using Aequorin luminescence-based functional calcium assay.

Test [5] deals with T4, Prostaglandin E2 receptor EP1 subtype (Homo sapiens, UniProt P34995).
T4 sequence (P34995 whole entry): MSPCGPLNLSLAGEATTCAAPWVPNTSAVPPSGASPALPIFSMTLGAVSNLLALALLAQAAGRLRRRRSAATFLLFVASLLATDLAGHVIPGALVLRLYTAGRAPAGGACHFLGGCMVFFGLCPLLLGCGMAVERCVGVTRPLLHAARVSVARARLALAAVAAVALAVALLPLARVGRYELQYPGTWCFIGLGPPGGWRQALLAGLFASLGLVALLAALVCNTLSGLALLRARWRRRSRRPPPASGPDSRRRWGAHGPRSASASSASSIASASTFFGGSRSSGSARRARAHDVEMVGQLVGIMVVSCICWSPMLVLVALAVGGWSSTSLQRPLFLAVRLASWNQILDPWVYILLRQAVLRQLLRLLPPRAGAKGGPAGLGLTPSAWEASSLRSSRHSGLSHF
Put plainly: Affinity at human EP1 receptor.

For test [6], the target named is Prostaglandin E2 receptor EP4 subtype (Homo sapiens, UniProt P35408). Put plainly: Affinity at human EP4 receptor.
The nature of test [7]: Compound was evaluated for ratio of Ki's of EP3 and EP1.

Where only a bound is given, the exact number is not on record here.

Chain of Prostaglandin E2 receptor EP2 subtype (P43116 whole entry): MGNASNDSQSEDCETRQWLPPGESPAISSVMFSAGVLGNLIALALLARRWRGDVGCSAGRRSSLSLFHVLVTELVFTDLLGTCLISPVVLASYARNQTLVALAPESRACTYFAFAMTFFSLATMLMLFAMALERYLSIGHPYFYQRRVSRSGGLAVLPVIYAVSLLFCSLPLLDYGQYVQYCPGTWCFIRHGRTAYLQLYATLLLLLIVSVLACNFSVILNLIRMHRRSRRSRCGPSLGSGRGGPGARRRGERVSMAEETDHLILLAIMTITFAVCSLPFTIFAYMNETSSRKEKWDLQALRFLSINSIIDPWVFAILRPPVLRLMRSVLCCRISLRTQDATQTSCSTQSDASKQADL
Chain of Prostaglandin F2-alpha receptor (P43088 whole entry): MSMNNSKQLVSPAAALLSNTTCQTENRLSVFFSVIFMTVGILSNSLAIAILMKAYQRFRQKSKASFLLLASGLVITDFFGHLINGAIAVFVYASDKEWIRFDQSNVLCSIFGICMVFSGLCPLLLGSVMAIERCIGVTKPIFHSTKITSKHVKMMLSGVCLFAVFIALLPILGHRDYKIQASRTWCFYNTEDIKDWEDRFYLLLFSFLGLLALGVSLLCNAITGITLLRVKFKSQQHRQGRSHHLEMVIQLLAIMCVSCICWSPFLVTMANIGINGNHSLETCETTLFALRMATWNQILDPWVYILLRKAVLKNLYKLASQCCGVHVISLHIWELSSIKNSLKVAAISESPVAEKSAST
Chain of Prostaglandin E2 receptor EP4 subtype (P35408 whole entry): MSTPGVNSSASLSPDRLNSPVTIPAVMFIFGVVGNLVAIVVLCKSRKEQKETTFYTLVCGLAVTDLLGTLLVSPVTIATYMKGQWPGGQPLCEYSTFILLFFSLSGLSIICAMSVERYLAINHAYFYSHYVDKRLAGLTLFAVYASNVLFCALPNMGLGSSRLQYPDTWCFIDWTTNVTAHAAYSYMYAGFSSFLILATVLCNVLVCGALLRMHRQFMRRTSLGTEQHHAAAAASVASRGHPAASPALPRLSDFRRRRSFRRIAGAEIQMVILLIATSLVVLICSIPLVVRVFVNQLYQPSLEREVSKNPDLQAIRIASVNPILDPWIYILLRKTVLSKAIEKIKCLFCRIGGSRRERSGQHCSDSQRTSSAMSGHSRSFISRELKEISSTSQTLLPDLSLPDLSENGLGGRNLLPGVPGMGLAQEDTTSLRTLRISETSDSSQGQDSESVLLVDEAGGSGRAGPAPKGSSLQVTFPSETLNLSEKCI
Chain of Prostacyclin receptor (P43119 whole entry): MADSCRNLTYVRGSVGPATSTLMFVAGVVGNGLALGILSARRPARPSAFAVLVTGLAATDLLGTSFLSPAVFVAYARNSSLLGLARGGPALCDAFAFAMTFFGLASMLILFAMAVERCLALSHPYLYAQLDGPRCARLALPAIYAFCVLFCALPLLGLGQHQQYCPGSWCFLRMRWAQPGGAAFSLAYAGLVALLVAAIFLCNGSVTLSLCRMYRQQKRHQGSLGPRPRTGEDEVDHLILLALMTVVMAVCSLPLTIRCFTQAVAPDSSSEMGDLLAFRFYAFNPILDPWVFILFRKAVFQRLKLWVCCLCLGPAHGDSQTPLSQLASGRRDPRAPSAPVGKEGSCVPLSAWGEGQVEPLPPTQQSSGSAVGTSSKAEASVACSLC

The Ki is the equilibrium dissociation constant of an inhibitor or competing ligand from its target. As for `CN(CCc1ccccc1)C(=O)NS(=O)(=O)c1ccccc1-c1ccc(CN2C(=O)c3ccccc3CCc3ccccc32)cc1`, the inhibition constant Ki in test [1] was found to be 23 µM; in test [2], 6.2 µM; on Prostacyclin receptor it was 52 µM; at Thromboxane A2 receptor it was 2.1 µM; in [3] it was 5 µM; in test [4], 2.87 µM. The figures for the Ki in test [5] and in test [6] were 0.017 µM and 1.1 µM, respectively.

For the molecule `O=C(NCCc1cccs1)NS(=O)(=O)c1ccccc1-c1ccc(CN2C(=O)c3ccccc3CCc3ccccc32)cc1`, the Ki in test [1] was over 100 µM; in [3], 2.2 µM; in [5], 0.1 µM; in test [6], over 100 µM.

Consider `O=C(NCCc1cccs1)NS(=O)(=O)c1ccccc1-c1ccc(CN2Cc3ccccc3CCc3ccccc32)cc1`, for which the Ki in [5] came to 2.8 µM.

As to `CC(C)(C)NC(=O)NS(=O)(=O)c1ccccc1-c1ccc(CN2C(=O)c3ccccc3CCc3ccccc32)cc1`, the Ki in test [1] is over 100 µM; in test [3], 1.2 µM; in [5], 0.77 µM; in [6] it was 4.7 µM. Besides, in [7], the Ratio was found to be 1.7.

For `CC(C(=O)NS(=O)(=O)c1ccccc1-c1ccc(CN2C(=O)c3ccccc3CCc3ccccc32)cc1)c1ccccc1` (centres undefined), the Ki was over 100 µM in [1]; 5.3 µM in test [2]; 28.3 µM at Prostacyclin receptor; 2.8 µM at Thromboxane A2 receptor; 5 µM in [3]; 2.8 µM in [4]. The Ki in test [5] was determined as 0.016 µM; in [6] it was 20 µM.

On to `O=C(NCCc1ccccc1)NS(=O)(=O)c1ccccc1-c1ccc(CN2C(=O)c3ccccc3CCc3ccccc32)cc1`, for which the inhibitory constant (Ki) was over 100 µM in test [1], 51.2 µM in test [3], 0.12 µM in test [5] and over 100 µM in [6].

Turning to `CC(C)(C(=O)NS(=O)(=O)c1ccccc1-c1ccc(CN2C(=O)c3ccccc3CCc3ccccc32)cc1)c1ccccc1`, the inhibition constant Ki was 23 µM in [1]; 5 µM in test [2]; 21 µM at Prostacyclin receptor; 3 µM on Thromboxane A2 receptor; 4 µM in test [3]; 2.4 µM in [4]. Besides, the Ki in test [5] came out at 0.01 µM; in [6] it was 5 µM.

Turning to `CC(C)(Cc1ccccc1)C(=O)NS(=O)(=O)c1ccccc1-c1ccc(CN2C(=O)c3ccccc3CCc3ccccc32)cc1`, the Ki in test [1] was over 100 µM; in [2], 1.3 µM; at Prostacyclin receptor, 21 µM; at Thromboxane A2 receptor, 1.1 µM; in test [3], 16 µM; in test [4] it was 4 µM. Moreover, the Ki in [5] was found to be 0.018 µM; in test [6], 2.4 µM.

Turning to `O=C1c2ccccc2CCc2ccccc2N1Cc1ccc(-c2ccccc2S(=O)(=O)N(Cc2ccccc2)C(=O)NCCc2ccccc2)cc1`, the Ki in test [1] is over 100 µM; in [3], over 100 µM; in test [5], 51 µM; in test [6], over 100 µM.

With `CCCCNC(=O)NS(=O)(=O)c1ccccc1-c1ccc(CN2C(=O)c3ccccc3CCc3ccccc32)cc1`, the inhibition constant (Ki) in test [1] is over 100 µM; in test [3], 6 µM; in test [5], 0.22 µM; in test [6], over 100 µM.

With `O=C(COc1ccccc1)NS(=O)(=O)c1ccccc1-c1ccc(CN2C(=O)c3ccccc3CCc3ccccc32)cc1`, the Ki was 22 µM in [1], 4.7 µM in [3], 0.14 µM in [5] and 7 µM in test [6].

On to `O=C(NS(=O)(=O)c1ccccc1-c1ccc(CN2C(=O)c3ccccc3CCc3ccccc32)cc1)OCc1ccccc1`, for which the inhibitory constant (Ki) in [1] was 11 µM; in test [3], 2.4 µM; in test [5] it was 0.15 µM; in [6], 6 µM.

Regarding `CN(C(=O)NCCc1ccccc1)S(=O)(=O)c1ccccc1-c1ccc(CN2C(=O)c3ccccc3CCc3ccccc32)cc1`, the Ki in test [1] was over 100 µM; in [3], over 100 µM; in [5], 0.36 µM; in [6], over 100 µM.

Take `O=C(CCc1ccccc1)NS(=O)(=O)c1ccccc1-c1ccc(CN2C(=O)c3ccccc3CCc3ccccc32)cc1`: the inhibition constant (Ki) in test [1] was over 100 µM; in test [3] it was 3.6 µM; in test [5], 0.047 µM; in test [6], 13 µM.

On to `O=C(Nc1ccccc1)NS(=O)(=O)c1ccccc1-c1ccc(CN2C(=O)c3ccccc3CCc3ccccc32)cc1`, for which the Ki in test [1] came out at 16 µM; in [3] it was 4.6 µM; in [5], 21 µM; in test [6], 19 µM.

In the case of `O=C(NCCc1cccs1)NS(=O)(=O)c1ccccc1-c1ccc(Cn2c(=O)c3ccccc3c3ccccc32)cc1`, the Ki in test [5] turned out to be 1.2 µM.

Regarding `CO[C@](C(=O)NS(=O)(=O)c1ccccc1-c1ccc(CN2C(=O)c3ccccc3CCc3ccccc32)cc1)(c1ccccc1)C(F)(F)F`, the Ki worked out at 11 µM in test [1]; 3.8 µM in [2]; 13 µM at Prostacyclin receptor; 1.5 µM at Thromboxane A2 receptor; 1.3 µM in test [3]; 2 µM in test [4]. Moreover, the Ki in test [5] is 0.012 µM; in test [6], 4 µM.

In the case of `O=C(NCCc1cccs1)NS(=O)(=O)c1ccccc1-c1ccc(CN2C(=O)c3ccccc3Oc3ccccc32)cc1`, the Ki in test [5] came out at 10.8 µM.

Take `O=C(NCCCc1ccccc1)NS(=O)(=O)c1ccccc1-c1ccc(CN2C(=O)c3ccccc3CCc3ccccc32)cc1`: the Ki in [1] was over 100 µM; in [3], over 100 µM; in test [5], 0.4 µM; in test [6], over 100 µM.

In the case of `O=C(NCc1ccccc1)NS(=O)(=O)c1ccccc1-c1ccc(CN2C(=O)c3ccccc3CCc3ccccc32)cc1`, the Ki in [1] was over 100 µM; in test [3] it was 13 µM; in test [5] it was 0.2 µM; in [6] it was over 100 µM.

Turning to `C[C@H](NC(=O)NS(=O)(=O)c1ccccc1-c1ccc(CN2C(=O)c3ccccc3CCc3ccccc32)cc1)c1ccccc1`, the Ki in test [1] was determined as 21 µM; in [3] it was 4.7 µM; in test [5] it was 0.14 µM; in test [6], 6.9 µM.

In the case of `CO[C@@](C(=O)NS(=O)(=O)c1ccccc1-c1ccc(CN2C(=O)c3ccccc3CCc3ccccc32)cc1)(c1ccccc1)C(F)(F)F`, the Ki is 13 µM in [1], 1.6 µM in [3], 0.05 µM in test [5] and 3 µM in [6].

Regarding `O=C(Cc1ccccc1)NS(=O)(=O)c1ccccc1-c1ccc(CN2C(=O)c3ccccc3CCc3ccccc32)cc1`, the Ki was 14 µM in [1], 2.8 µM in test [3], 0.057 µM in test [5] and over 100 µM in test [6].
